Measured values taken from the NIST ThermoML archive (doi:10.1021/je900050z).

Details: Liquid

CCC(C)O (configuration not stated) [butan-2-ol]
Details	vapor or sublimation pressure [kPa]
314.47 K	6.08
315.36 K	6.43
316.21 K	6.81
317.61 K	7.45
318.57 K	7.92
319.37 K	8.35
319.58 K	8.45
320.18 K	8.77
321.05 K	9.23
322.03 K	9.8
322.68 K	10.19
323.15 K	10.48
323.41 K	10.64
324.05 K	11.04
324.72 K	11.47
325.27 K	11.84
325.92 K	12.31
326.66 K	12.81
327.32 K	13.16
328.28 K	14.03
329.05 K	14.61
329.91 K	15.31
330.49 K	15.79
331.11 K	16.31
331.58 K	16.71
332.17 K	17.25
332.81 K	17.87
333.15 K	18.2
333.28 K	18.33
333.65 K	18.68
334.23 K	19.24
334.69 K	19.71
335.19 K	20.2
335.69 K	20.71
336.28 K	21.33
336.77 K	21.85
337.23 K	22.35
337.72 K	22.87
338.08 K	23.28
338.6 K	23.87
339.07 K	24.43
339.5 K	24.95
339.9 K	25.43
340.34 K	25.97
340.95 K	26.79
341.4 K	27.36
341.87 K	27.99
342.34 K	28.63
342.89 K	29.37
343.15 K	29.76
343.32 K	29.97
343.81 K	30.67
344.25 K	31.31
344.71 K	31.99
345.14 K	32.63
345.6 K	33.33
346.02 K	33.99
